# Data published in paper PMC9616876, “Structures of the CcmABCD heme release complex at multiple states” (Nature Communications, 2022).
# Legend:
# [1] = molecular target: T1, CcmABCD (ATP-binding site in CcmA) (Escherichia coli, UniProt P33931); test: cryo-EM structure
# T1 construct: full-length CcmA2B2C1D1, N-terminal His6 on CcmA; CcmABCDE operon co-expressed in E. coli BL21(DE3), CcmE not observed in purified complex; DDM-solubilised membranes; with Heme exporter protein B; Heme exporter protein C; Heme exporter protein D
# [2] = molecular target: the molecule itself; test: cryo-EM structure; CcmABCD purified in DDM (20 mM Tris-HCl pH 7.5, 50 mM NaCl, 0.03% DDM), ~12 mg/ml; apo, with 3.5 mM MgCl2 and AMP-PNP, or with 3.5 mM MgCl2, ATP, heme b and 1 mM DTT; closed, semi-open and open NBD states
molecule,measurement,setting,value
Nc1ncnc2c1ncn2[C@@H]1O[C@H](COP(=O)(O)OP(=O)(O)OP(=O)(O)O)[C@@H](O)[C@H]1O [ATP],cryo-EM structure,"[1]; 3.5 mM ATP, 3.5 mM MgCl2, 3.5 mM heme b, 1 mM DTT, two ATP in closed NBD state (7F04), one ATP in semi-open NBD state (7VFP), ATPase activity also measured",CcmABCD bound with heme b and double ATPs in closed NBD state
Nc1ncnc2c1ncn2[C@@H]1O[C@H](COP(=O)(O)OP(=O)(O)NP(=O)(O)O)[C@@H](O)[C@H]1O [AMP-PNP],cryo-EM structure,"[1]; 3.5 mM AMP-PNP, 3.5 mM MgCl2, two AMP-PNP, closed NBD state",CcmABCD bound with AMP-PNP in closed NBD state
O=P(O)(O)O [inorganic phosphate],cryo-EM structure,"[1]; no nucleotide added, one phosphate per CcmA, closed NBD state, membranes purified in potassium phosphate buffer",each CcmA binds one inorganic phosphate
"CcmB (natural protein, E. coli BL21 (DE3), CcmB, integral membrane protein with six transmembrane helices, gene amplified from the E. coli BL21 (DE3) genome; also called CcmB1; CcmB2) MMFWRIFRLELRVAFRHSAEIANPLWFFLIVITLFPLSIGPEPQLLARIAPGIIWVAALLSSLLALERLFRDDLQDGSLEQLMLLPLPLPAVVLAKVMAHWMVTGLPLLILSPLVAMLLGMDVYGWQVMALTLLLGTPTLGFLGAPGVALTVGLKRGGVLLSILVLPLTIPLLIFATAAMDAASMHLPVDGYLAILGALLAGTATLSPFATAAALRISIQ",stoichiometry N,[2],2
"CcmA (natural protein, E. coli BL21 (DE3), The whole CcmABCDE gene stretch was amplified by PCR from the genome; also called hexahistidine-tagged CcmA; NBD; not shown: His6, N-terminal, kept) MGMLEARELLCERDERTLFSGLSFTLNAGEWVQITGSNGAGKTTLLRLLTGLSRPDAGEVLWQGQPLHQVRDSYHQNLLWIGHQPGIKTRLTALENLHFYHRDGDTAQCLEALAQAGLAGFEDIPVNQLSAGQQRRVALARLWLTRATLWILDEPFTAIDVNGVDRLTQRMAQHTEQGGIVILTTHQPLNVAESKIRRISLTQTRAA",stoichiometry N,[2],2
